Legend:
RXRα = biological target: T1, RXRα (Homo sapiens, UniProt P19793); conditions: insect and mammalian cells; cited from earlier work
T1 construct: host or cells: insect and mammalian cells (as reported by Harmon et al.)
T1 sequence (P19793 1-462): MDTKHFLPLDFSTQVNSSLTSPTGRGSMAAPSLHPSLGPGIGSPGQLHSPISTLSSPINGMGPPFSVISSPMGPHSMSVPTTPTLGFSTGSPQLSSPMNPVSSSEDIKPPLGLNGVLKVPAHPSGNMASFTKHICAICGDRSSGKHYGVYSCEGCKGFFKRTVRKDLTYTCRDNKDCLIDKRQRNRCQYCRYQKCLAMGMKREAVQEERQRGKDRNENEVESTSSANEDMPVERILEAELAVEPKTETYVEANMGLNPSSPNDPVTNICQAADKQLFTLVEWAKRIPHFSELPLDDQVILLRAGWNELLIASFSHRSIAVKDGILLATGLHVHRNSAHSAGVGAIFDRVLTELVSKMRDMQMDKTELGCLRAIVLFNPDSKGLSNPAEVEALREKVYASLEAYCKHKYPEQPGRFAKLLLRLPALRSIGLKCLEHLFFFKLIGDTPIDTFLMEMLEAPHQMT

[1] = biological target: T2, receptor polypeptide VP16-USP (Drosophila melanogaster, UniProt P20153); assay: VP16-USP activation of a direct repeat luciferase target cassette in transformed maize cells; format: cell-based; parameters: expressed in transfected cells; conditions: 35S/VP16-USP, target (DR3)3-Bz1TATA/Luc, 10 μM ligand, 48 hours, no ligand 29,967
T2 sequence (P06492 413-490, one chain of several): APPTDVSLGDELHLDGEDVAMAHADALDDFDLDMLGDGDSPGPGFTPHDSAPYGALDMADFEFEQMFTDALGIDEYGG
From the text: Control of target polypeptide expression by various receptor polypeptides, including the chimeric receptor polypeptides of the present invention, can be shown by simultaneously transforming plant cells with the necessary gene constructions using high velocity microprojectile bombardment, followed by biochemical assay for the presence of the target polypeptide. The necessary gene constructions comprise a USP receptor expression cassette which encodes a USP receptor polypeptide (FIG. 1). Optionally, the USP receptor expression cassette may be transformed along with a secondary receptor expression cassette which encodes a receptor polypeptide distinct from USP (FIGS. 2 and 3). In addition, a target expression cassette which encodes a target polypeptide is also necessary. […]
Target polypeptide expression was detected by assaying the extract for the presence of the product encoded by the target expression cassette. […] The activity of firefly luciferase is determined by quantitating the chemiluminescence produced by luciferase catalyzed phosphorylation of luciferin using ATP as substrate (Promega Luciferase Kit, cat. no. E1500), using an Analytical Luminescence Model 2001 luminometer. […]

[2] = biological target: T3, receptor polypeptides GAL4-EcR^330-825-C1 and USP-VP16 (Drosophila melanogaster, UniProt P20153); assay: Reversal by juvenile hormone agonists of GAL4-EcR-C1 + USP-VP16 activation of a luciferase target cassette in transformed maize cells; format: cell-based; conditions: 10 μM ligand, approximately 48 hours
T3 construct: expressed in transfected cells; host or cells: maize suspension cells, microprojectile bombardment
T3 sequence (P06492 411-490, one chain of several): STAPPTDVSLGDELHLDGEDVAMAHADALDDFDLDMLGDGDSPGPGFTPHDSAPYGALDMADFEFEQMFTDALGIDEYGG
From the text: (§1) Control of target polypeptide expression by various receptor polypeptides, including the chimeric receptor polypeptides of the present invention, can be shown by simultaneously transforming plant cells with the necessary gene constructions using high velocity microprojectile bombardment, followed by biochemical assay for the presence of the target polypeptide. The necessary gene constructions comprise a USP receptor expression cassette which encodes a USP receptor polypeptide (FIG. 1). Optionally, the USP receptor expression cassette may be transformed along with a secondary receptor expression cassette which encodes a receptor polypeptide distinct from USP (FIGS. 2 and 3). In addition, a target expression cassette which encodes a target polypeptide is also necessary.
(§2) The expression cassettes were simultaneously delivered to maize suspension cells cultured in liquid N6 medium (Chu et al. Scientia Sinica XVIII:659-668, 1975) by high velocity microprojectile bombardment using standard techniques of DNA precipation onto microprojectiles and high velocity bombardment driven by compressed helium (PDS1000/He, BioRad, Hercules, Calif.). Transfected cells were incubated in liquid suspension in the presence of the appropriate chemical ligand for approximately 48 hours in N6 media. After incubation, the transformed cells were harvested then homogenized at 0° C. Debris in the extracts was removed by centrifugation at 10,000 g at 4° C. for 5 minutes.
(§3) Target polypeptide expression was detected by assaying the extract for the presence of the product encoded by the target expression cassette. One commonly used coding sequence for the target polypeptide when testing control of expression by the receptor polypeptides in the presence of a chemical ligand is firefly luciferase. The activity of firefly luciferase is determined by quantitating the chemiluminescence produced by luciferase catalyzed phosphorylation of luciferin using ATP as substrate (Promega Luciferase Kit, cat. no. E1500), using an Analytical Luminescence Model 2001 luminometer. […]

[3] = biological target: T4, receptor polypeptides GAL4-EcR^330-825-C1 and USP-VP16 (Drosophila melanogaster, UniProt P20153+P34021); assay: Tebufenozide-induced activation by GAL4-EcR-C1 + USP-VP16 of a luciferase target cassette in maize cells, and its block by methoprene; format: cell-based; conditions: approximately 48 hours
T4 construct: expressed in transfected cells; host or cells: maize suspension cells, microprojectile bombardment
From the text: as §1, §2, §3

[4] = biological target: T2, receptor polypeptide VP16-USP; assay: Chemical induction of luciferase in isolated leaves of transgenic Arabidopsis expressing VP16-USP with a DR-Luciferase reporter; format: cell-based; parameters: expressed in transfected cells; host or cells: transgenic Arabidopsis thaliana (Columbia), isolated leaves; Agrobacterium T-DNA construct; conditions: approximately 24 hours; for Fold increase in luciferase activity: 10 μM; for Luciferase Activity: 35S/VP16-USP, 10 μM ligand in 0.1% ethanol, light units per 10 seconds per 100 μg extract protein, control 638
Protocol: Arabidopsis thaliana (Columbia) was transformed with an Agrobacterium vector harboring a CaMV 35S promoter and a DR-Luciferase reporter (as described in Example 13 above) by the following vacuum-infiltration procedure. Electrocompetent GV3101 Agrobacterium cells were prepared by incubating GV3101 Agrobacterium in 2×YT media at 28° C. with aeration for 24-30 hours to an OD600 of 0.5-0.7 units. Cells were chilled on ice for 10-30 minutes, and centrifuged at 5,000 RPM for 5 minutes at 4° C. The supernatant was discarded, and the cell pellet resuspended in 1 volume of ice-cold 10% glycerol. Cells were again centrifuged at 5,000 RPM for 5 minutes at 4° C. The supernatant was discarded, and the cell pellet resuspended in 0.05 volumes of ice-cold 10% glycerol. Cells were again centrifuged at 5,000 RPM for 5 minutes at 4° C. The supernatant was discarded, and the cell pellet resuspended in 0.02 volume of ice-cold 10% glycerol. Cells were again centrifuged at 5,000 RPM for 5 minutes at 4° C. The supernatant was discarded, and the cell pellet resuspended 0.02 volume of ice-cold 10% glycerol. Cells were again centrifuged at 5,000 RPM for 5 minutes at 4° C. The supernatant was discarded, and the cell pellet resuspended in 0.01 volume of ice-cold 10% glycerol. Cells were aliquoted in […] amounts per 1.5 ml microfuge tubes, quick-frozen in liquid N2, and stored at −80° C. Electrocompetent cells were used before 6 weeks storage at −80° C. Frozen electrocompetent cells were thawed on ice and 40 ml transfered to a pre-chilled 1.5 ml microfuge tube. 1 ml of the appropriate Agrobacterium plasmid DNA (2-10 ng) was added to the thawed cells and mixed on ice. The cell/plasmid mixture was transfered to a prechilled 0.2 cm Bio-Rad electroporation cuvette, and electroporated at 2.0 KVolts, 600 Ohms, 25 μFarad, with a 6 msec time constant. 1 †ml of 2×YT media was added to the electroporation cuvette, the cell/plasmid solution was mixed with a pipet tip, and the contents transfered to a fresh 1.5 ml microfuge tube. Cells were then incubated at […] for 1 hour on a shaker at 200 RPM. The cells were centrifuged down for 2 minutes at a setting of 6 in an Eppendorph adjustable-speed microfuge, the supernatant decanted, and the cell pellet resuspended in the remaining liquid. Resuspended cells were spread on an LB media plate with the appropriate antibiotic. Plates were incubated at 28-30° C. for […]. A 50 ml LB culture was innoculated with a single transformed colony in a 250 ml flask with Rifampicin at 100 μg/ml and Gentomycin at 25 μg/ml and Kanamycin at 100 μg/ml. The culture was incubated for 24-36 hours at 28° C. at 250 RPM and 10 ml of the culture was used to innoculate 500 ml LB+antibiotics in a 2-liter flask. This culture was incubated overnight at 28° C. with shaking at 250 RPM. […]

USP = biological target: T5, USP (Drosophila melanogaster, UniProt P20153); conditions: Drosophila cell-culture assays; conditions in which RXR is responsive; cited from earlier work
T5 construct: host or cells: Drosophila cell culture (as reported by Oro et al. and Harmon et al.)
T5 sequence (P20153 1-508): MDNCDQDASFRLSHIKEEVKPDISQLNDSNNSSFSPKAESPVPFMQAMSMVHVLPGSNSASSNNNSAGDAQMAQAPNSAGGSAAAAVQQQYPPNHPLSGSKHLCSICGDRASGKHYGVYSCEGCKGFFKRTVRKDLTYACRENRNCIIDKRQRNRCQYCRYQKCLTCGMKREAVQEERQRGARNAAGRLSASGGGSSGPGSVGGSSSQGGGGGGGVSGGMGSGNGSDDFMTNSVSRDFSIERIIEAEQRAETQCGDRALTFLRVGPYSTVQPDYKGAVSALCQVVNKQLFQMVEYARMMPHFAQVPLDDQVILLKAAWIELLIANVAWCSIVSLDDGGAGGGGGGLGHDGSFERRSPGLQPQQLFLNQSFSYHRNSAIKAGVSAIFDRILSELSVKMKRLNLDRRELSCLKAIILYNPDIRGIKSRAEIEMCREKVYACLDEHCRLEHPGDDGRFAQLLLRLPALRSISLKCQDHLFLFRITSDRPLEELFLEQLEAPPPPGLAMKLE

[5] = biological target: USP-VP16 chimeric receptor polypeptide (Drosophila; herpes simplex virus) (UniProt P20153); assay: cell-based or functional assay
[6] = Experiment #1, 35S/GAL4-EcR^330-825-C1 + 35S/USP-VP16, target (GAL4b.s.)10-Bz1TATA/Luc, no ligand 277,862

For `COC(C)(C)CCC[C@H](C)C/C=C/C(C)=C/C(=O)OC(C)C` (racemic) [Methoprene], the “RXRα-mediated transcriptional activation of a recombinant reporter gene” value (“RXRα-mediated transcriptional activation” for short) (RXRα) is given as “transcriptionally activate”, the “Luciferase Activity” value [1] is given as 485,458 light units and the “Luciferase Activity” value [2, 6] is given as 14,786 light units. For the same molecule, the “Luciferase Activity” value ([2]; Experiment #2, 35S/GAL4-EcR^330-825-C1 + 35S/USP-VP16, target (GAL4b.s.)10-Bz1TATA/Luc, no ligand 178,092) was 5,730 light units, the “Effect on tebufenozide-induced activation of luciferase gene expression” value ([3]; 10 μM methoprene with 10 μM tebufenozide) was “completely blocked” and the “Fold increase in luciferase activity” value [4] was 25 fold. For the same molecule, the “Luciferase Activity” value [4] was 15,790 light units.

With `CCOC(=O)NCCOc1ccc(Oc2ccccc2)cc1` [Fenoxycarb, ethyl [2-(4-phenoxyphenoxy)ethyl]carbamate] the “Luciferase Activity” value [2, 6] was 77,418 light units, the “Fold increase in luciferase activity” value [4] was 6.2 fold and the “Luciferase Activity” value [4] was 3,991 light units.

In the case of `CCc1ccc(C(=O)NN(C(=O)c2cc(C)cc(C)c2)C(C)(C)C)cc1` [Tebufenozide], the “Tebufenozide-induced activation of luciferase gene expression, fold increase when used alone” value ([3]; 10 μM) is reported as “approximately 6 fold” and the “Luciferase Activity” value ([3]; 35S/GAL4-EcR^330-825-C1 + 35S/USP-VP16, target (GAL4b.s.)10-Bz1TATA/Luc, 10 μM each ligand, no ligand 178,092) is reported as 908,912 light units.

For `COC(C)(C)CCCC(C)C/C=C/C(C)=C/C(=O)O` (centres unmarked) [methoprene acid], the “RXRα-mediated transcriptional activation” value (RXRα) is listed as “transcriptionally activate” and the “Activation / response of USP” value (USP) is listed as “does not respond”.

“GAL4-EcR^330-825-C1 chimeric receptor polypeptide (from UniProt P04386 1-147; P34021 330-825; P10290 219-273)” gave a Luciferase Activity (light units) of the (GAL4b.s.)10-Bz1TATA/Luc reporter in maize cells, Experiment #1, no chemical ligand [5] of 278000 light units, a Luciferase Activity (light units) of the (GAL4b.s.)10-Bz1TATA/Luc reporter in maize cells, Experiment #1, with 10 uM Fenoxycarb [5] of 77400 light units and a Luciferase Activity (light units) of the (GAL4b.s.)10-Bz1TATA/Luc reporter in maize cells, Experiment #1, with 10 uM Methoprene [5] of 14800 light units. It also gave a Luciferase Activity (light units) of the (GAL4b.s.)10-Bz1TATA/Luc reporter in maize cells, Experiment #2, no chemical ligand [5] of 178000 light units, a Luciferase Activity (light units) of the (GAL4b.s.)10-Bz1TATA/Luc reporter in maize cells, Experiment #2, with 10 uM Methoprene [5] of 5730 light units and a Luciferase Activity (light units) of the (GAL4b.s.)10-Bz1TATA/Luc reporter in maize cells, with 10 uM Tebufenozide [5] of 909000 light units. For the same molecule, the Luciferase Activity (light units) of the (GAL4b.s.)10-Bz1TATA/Luc reporter in maize cells, with 10 uM Tebufenozide + 10 uM Methoprene [5] was 160000 light units and the level of tebufenozide-induced activation of luciferase gene expression (fold increase, tebufenozide alone) [5] was 6 fold.

In the case of Juvenile hormone, the “RXRα-mediated transcriptional activation” value (RXRα) is listed as “does not induce”.

From patent publication US6362394B1, “Juvenile hormone or one of its agonists as a chemical ligand to control gene expression in plants by receptor mediated transactivation” (Syngenta Participations AG, priority 1995, dated 2002)
